Columns and labels:
Type in all cases: in vivo
[1] = tested on: Echinochloa crusgalli; test: Weeding effect in post-emergence stage; conditions: for Weeding effect in post-emergence stage, Echinochloa crusgalli: level of fresh weight growth control rate; for Weeding effect in post-emergence stage, Echinochloa crusgalli (level): fresh weight control rate level
How it was run: (§1)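 Pot-grown greenhouse plants sprayed at 2–3 leaf stage, 2 weeks after sowing, with compound in acetone/Tween 80 plus methyl oleate emulsifiable concentrate (1.5 liter/ha) at 500–7.5 g/ha. Growth control rated 3 weeks after treatment; mean of three replicates.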

[2] = tested on: Monochoria vaginalis; test: Weed control effect evaluation in rice field; conditions: rice field pot, 30 g/ha, 14 days after treatment
Source text: (§2) The activity level criteria for plant damage (i.e., growth control rate) are as follows:
(§3) Rice field soil was loaded into a 1/1,000,000 ha pot. The seeds of Echinochloa crusgalli. Scirpus juncoides. Bidens tripartita L., Monochoria vaginalis, and Leptochloa chinensis were sowed and gently covered with soil, then left to stand still in greenhouse in the state of 0.5-1 cm of water storage. The tuber of Sagittaria trifolia was planted in the next day or 2 days later. It was kept at 3-4 cm of water storage thereafter. The weeds were treated by dripping the WP or SC water diluents prepared according to the common preparation method of the compounds of the present invention with pipette homogeneously to achieve specified effective amount when Echinochloa crusgalli. Scirpus juncoides, Bidens tripartita L., Monochoria vaginalis, and Leptochloa chinensis reached 0.5 leaf stage and Sagittaria trifolia reached the time point of primary leaf stage.
(§4) The fertility condition of Echinochloa crusgalli. Scirpus juncoides. Bidens tripartita L., Monochoria vaginalis, Leptochloa chinensis and Sagittaria trifolia 14 days after the treatment of the compound of the invention and the fertility condition of rice 21 days after the treatment of the compound of the invention respectively with the naked eye. Evaluate the weed control effect with the above activity standard level. Many compounds show excellent activity and selectivity.

[3] = tested on: Scirpus juncoides; test: Weed control effect evaluation in rice field; conditions: rice field pot, 30 g/ha, 14 days after treatment
Source text: as §2, §3, §4

[4] = tested on: Leptochloa chinensis; test: Weed control effect evaluation in rice field; conditions: rice field pot, 30 g/ha, 14 days after treatment
Source text: as §2, §3, §4

[5] = tested on: Abutilon theophrasti; test: Weeding effect in post-emergence stage; conditions: for Weeding effect in post-emergence stage, Abutilon theophrasti: level of fresh weight growth control rate; for Weeding effect in post-emergence stage, Abutilon theophrasti (level): fresh weight control rate level
How it was run: as §1

[6] = tested on: Setaria viridis; test: Weeding effect in post-emergence stage; conditions: for Weeding effect in post-emergence stage, Setaria viridis: level of fresh weight growth control rate; for Weeding effect in post-emergence stage, Setaria viridis (level): fresh weight control rate level
How it was run: as §1

[7] = tested on: Eleusine indica; test: Weeding effect in post-emergence stage; conditions: for Weeding effect in post-emergence stage, Eleusine indica: level of fresh weight growth control rate; for Weeding effect in post-emergence stage, Eleusine indica (level): fresh weight control rate level
How it was run: as §1

[8] = tested on: Alopecurus japonicus; test: Weeding effect in post-emergence stage; conditions: for Weeding effect in post-emergence stage, Alopecurus japonicus: level of fresh weight growth control rate; for Weeding effect in post-emergence stage, Alopecurus japonicus (level): fresh weight control rate level
How it was run: as §1

[9] = tested on: Digitaria sanguinalis; test: Weeding effect in post-emergence stage; conditions: for Weeding effect in post-emergence stage, Digitaria sanguinalis: level of fresh weight growth control rate; for Weeding effect in post-emergence stage, Digitaria sanguinalis (level): fresh weight control rate level
How it was run: as §1

[10] = tested on: Peanut; test: Pre-emergence stage, crop selectivity; conditions: 30 g/ha, 4 weeks
How it was run: (§5)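 Test compounds were dissolved in acetone with tween 80, diluted with water and sprayed right after sowing, with seeds covered by 0.5-2 cm of soil. Rates were 500 to 7.5 g/ha. Growth control was scored against activity-level criteria after 4 weeks in the greenhouse.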

[11] = tested on: cotton; test: Pre-emergence stage, crop selectivity; conditions: 30 g/ha, 4 weeks
How it was run: as §5

[12] = tested on: corn; test: Pre-emergence stage, crop selectivity; conditions: 30 g/ha, 4 weeks
How it was run: as §5

[13] = tested on: Soybeans; test: Pre-emergence stage, crop selectivity; conditions: 30 g/ha, 4 weeks
How it was run: as §5

[14] = tested on: Rice; test: Transplanted rice safety evaluation; conditions: transplanted japonica rice, 30 g/ha, 21 days after treatment
Protocol: as §2
In addition, the rice field soil that loaded into the 1/1,000,000 ha pot was leveled to keep water storage at 3-4 cm depth. The 5 leaf stage rice (japonica rice) was transplanted at 3 cm of transplanting depth the next day. The compound of the present invention was treated by the same way after 5 days of transplantation.
as §4

[15] = tested on: Amaranthus retroflexus; test: Weeding effect in pre-emergence stage; conditions: 30 g/ha, 4 weeks
How it was run: as §5

[16] = tested on: Descurainia sophia; test: Weeding effect in pre-emergence stage; conditions: 30 g/ha, 4 weeks
How it was run: as §5

[17] = tested on: Abutilon theophrasti; test: Weeding effect in pre-emergence stage; conditions: 30 g/ha, 4 weeks
How it was run: as §5

[18] = tested on: Veronica didyma Tenore; test: Weeding effect in pre-emergence stage; conditions: 30 g/ha, 4 weeks
How it was run: as §5

[19] = tested on: Capsella bursa-pastoris; test: Weeding effect in pre-emergence stage; conditions: 30 g/ha, 4 weeks
How it was run: as §5

[20] = tested on: Setaria viridis; test: Weeding effect in pre-emergence stage; conditions: 30 g/ha, 4 weeks
How it was run: as §5

Row | Compound | Weeding effect in post-emergence stage, Echinochloa crusgalli ([1]; Dose 15 g/ha) | activity level (weed control effect) Monochoria vaginalis [2] | activity level (weed control effect) Scirpus juncoides [3] | activity level (weed control effect) Leptochloa chinensis [4] | Weeding effect in post-emergence stage, Abutilon theophrasti ([5]; Dose 15 g/ha) | Weeding effect in post-emergence stage, Setaria viridis ([6]; Dose 15 g/ha) | Weeding effect in post-emergence stage, Eleusine indica ([7]; Dose 15 g/ha) | Weeding effect in post-emergence stage, Alopecurus japonicus ([8]; Dose 15 g/ha) | Weeding effect in post-emergence stage, Digitaria sanguinalis ([9]; Dose 15 g/ha) | plant damage level Peanut [10] | plant damage level Cotton [11] | plant damage level Corn [12] | plant damage level Soybeans [13] | plant damage level Rice [14] | activity level (growth control rate) Amaranthus retroflexus [15] | activity level (growth control rate) Descurainia sophia [16] | activity level (growth control rate) Abutilon theophrasti [17] | activity level (growth control rate) Veronica didyma Tenore [18] | activity level (growth control rate) Capsella bursa-pastoris [19] | activity level (growth control rate) Setaria viridis [20] | other results
1 | C[C@@H](O/N=C/c1cc(-n2c(=O)cc(C(F)(F)F)n(C)c2=O)c(F)cc1Cl)C(=O)OCC(F)(F)F [218(R)] | 5 (Level 5: growth control rate is above 85%) | 5 (Level 5: growth control rate is above 85%) | 5 (Level 5: growth control rate is above 85%) | 5 (Level 5: growth control rate is above 85%) | 5 (Level 5: growth control rate is above 85%) | 5 (Level 5: growth control rate is above 85%) | 5 (Level 5: growth control rate is above 85%) | 5 (Level 5: growth control rate is above 85%) | 5 (Level 5: growth control rate is above 85%) | 0 (Level 0: growth control rate is less than 5%) | 0 (Level 0: growth control rate is less than 5%) | 0 (Level 0: growth control rate is less than 5%) | 0 (Level 0: growth control rate is less than 5%) | 0 (Level 0: growth control rate is less than 5%) | 5 (Level 5: growth control rate is above 85%) | 5 (Level 5: growth control rate is above 85%) | 5 (Level 5: growth control rate is above 85%) | 5 (Level 5: growth control rate is above 85%) | 5 (Level 5: growth control rate is above 85%) | 5 (Level 5: growth control rate is above 85%) | 
2 | C=CCOC(=O)C(C)(C)O/N=C/c1cc(-n2c(=O)cc(C(F)(F)F)n(C)c2=O)c(F)cc1Cl [Compound 434] |  | 5 (Level 5: growth control rate is above 85%) | 5 (Level 5: growth control rate is above 85%) | 5 (Level 5: growth control rate is above 85%) |  |  |  |  |  | 0 (Level 0: growth control rate is less than 5%) | 0 (Level 0: growth control rate is less than 5%) | 0 (Level 0: growth control rate is less than 5%) | 0 (Level 0: growth control rate is less than 5%) | 0 (Level 0: growth control rate is less than 5%) | 5 (Level 5: growth control rate is above 85%) | 5 (Level 5: growth control rate is above 85%) | 5 (Level 5: growth control rate is above 85%) | 5 (Level 5: growth control rate is above 85%) | 5 (Level 5: growth control rate is above 85%) | 5 (Level 5: growth control rate is above 85%) | Weeding effect in post-emergence stage, Echinochloa crusgalli (level) ([1]; Dose 30 g/ha): 5 (Level 5: growth control rate is above 85%); Weeding effect in post-emergence stage, Abutilon theophrasti (level) ([5]; Dose 30 g/ha): 5 (Level 5: growth control rate is above 85%); Weeding effect in post-emergence stage, Setaria viridis (level) ([6]; Dose 30 g/ha): 5 (Level 5: growth control rate is above 85%); Weeding effect in post-emergence stage, Eleusine indica (level) ([7]; Dose 30 g/ha): 5 (Level 5: growth control rate is above 85%); Weeding effect in post-emergence stage, Alopecurus japonicus (level) ([8]; Dose 30 g/ha): 5 (Level 5: growth control rate is above 85%); Weeding effect in post-emergence stage, Digitaria sanguinalis (level) ([9]; Dose 30 g/ha): 5 (Level 5: growth control rate is above 85%)
3 | C#CCOC(=O)[C@@H](C)O/N=C/c1cc(-n2c(=O)cc(C(F)(F)F)n(C)c2=O)c(F)cc1Cl [212(R)] | 5 (Level 5: growth control rate is above 85%) | 5 (Level 5: growth control rate is above 85%) | 5 (Level 5: growth control rate is above 85%) | 5 (Level 5: growth control rate is above 85%) | 5 (Level 5: growth control rate is above 85%) | 5 (Level 5: growth control rate is above 85%) | 5 (Level 5: growth control rate is above 85%) | 5 (Level 5: growth control rate is above 85%) | 5 (Level 5: growth control rate is above 85%) | 0 (Level 0: growth control rate is less than 5%) | 0 (Level 0: growth control rate is less than 5%) | 0 (Level 0: growth control rate is less than 5%) | 0 (Level 0: growth control rate is less than 5%) | 0 (Level 0: growth control rate is less than 5%) | 5 (Level 5: growth control rate is above 85%) | 5 (Level 5: growth control rate is above 85%) | 5 (Level 5: growth control rate is above 85%) | 5 (Level 5: growth control rate is above 85%) | 5 (Level 5: growth control rate is above 85%) | 5 (Level 5: growth control rate is above 85%) | 
4 | CC(C)N(C)S(=O)(=O)NC(=O)[C@@H](C)O/N=C/c1cc(-n2c(=O)cc(C(F)(F)F)n(C)c2=O)c(F)cc1Cl [421(R)] |  | 5 (Level 5: growth control rate is above 85%) | 5 (Level 5: growth control rate is above 85%) | 5 (Level 5: growth control rate is above 85%) |  |  |  |  |  | 0 (Level 0: growth control rate is less than 5%) | 0 (Level 0: growth control rate is less than 5%) | 0 (Level 0: growth control rate is less than 5%) | 0 (Level 0: growth control rate is less than 5%) | 0 (Level 0: growth control rate is less than 5%) | 5 (Level 5: growth control rate is above 85%) | 5 (Level 5: growth control rate is above 85%) | 5 (Level 5: growth control rate is above 85%) | 5 (Level 5: growth control rate is above 85%) | 5 (Level 5: growth control rate is above 85%) | 5 (Level 5: growth control rate is above 85%) | Weeding effect in post-emergence stage, Echinochloa crusgalli (level) ([1]; Dose 15 g/ha): 5 (Level 5: growth control rate is above 85%); Weeding effect in post-emergence stage, Abutilon theophrasti (level) ([5]; Dose 15 g/ha): 5 (Level 5: growth control rate is above 85%); Weeding effect in post-emergence stage, Setaria viridis (level) ([6]; Dose 15 g/ha): 5 (Level 5: growth control rate is above 85%); Weeding effect in post-emergence stage, Eleusine indica (level) ([7]; Dose 15 g/ha): 5 (Level 5: growth control rate is above 85%); Weeding effect in post-emergence stage, Alopecurus japonicus (level) ([8]; Dose 15 g/ha): 5 (Level 5: growth control rate is above 85%); Weeding effect in post-emergence stage, Digitaria sanguinalis (level) ([9]; Dose 15 g/ha): 5 (Level 5: growth control rate is above 85%)

Source: patent US20230111310A1, “CARBOXYLIC ACID DERIVATIVE-SUBSTITUTED IMINO ARYL COMPOUND, PREPARATION METHOD THEREFOR, HERBICIDAL COMPOSITION AND USE THEREOF” (Qingdao Kingagroot Chemical Compound Co., Ltd., priority 2020, published 2023)
